Experimental data: US7189526B2, “Apparatus for culture, process for preparing apparatus for culture, and culturing method” (Kyokuto Pharmaceutical Industrial Co., Ltd., priority 2002, dated 2007)
Values belong to the molecule of their own block, whether it stands above or below them.

Assays:
hybridoma KNA14.2 [1] = test: Inhibition against cell proliferation by aminopterin and its compensation by hypoxantin, amount of LDH of living cells; assay type: cell-based; settings: for level of compensation of inhibition against cell proliferation by aminopterin: four days' culture, 1×10^5 cells per ml; for compensation of inhibition against cell proliferation by aminopterin: six days' culture, low hypoxantin concentration [A(+), H(0.1+)]
Protocol: In a medium bottle, 0.2 g of Agarose (Takara, L 03 “TaKaRa”) was suspended in 20 ml of ultrapure water (concentration: 1 w/v %). Then, to dissolve the agarose the suspension was heated at 121° C. for 15 minutes in an autoclave (Tomy Seiko, SS-320). A bottle containing the thus-obtained agarose solution was immersed in a water incubator set at 41° C. and the agarose solution was cooled to be 41° C.
While, 10.4 g of a powdery GIBCO™ Medium RPMI 1640 (INVITROGEN CORPORATION, Cat. No. 31800-014) was dissolved in 500 ml of ultrapure water (concentration: about twice the final concentration). This solution was sterilized by making the solution pass through a nitrocellulose filter membrane having a pore size of 0.2 μm. Thus, 2×RPMI 1640 medium solution was prepared.
To 100 ml of the 2×RPMI 1640 medium solution, 100 ml of heat-inactivated bovine fetal serum was added under a aseptic condition. The thus-obtained heat-inactivated bovine fetal serum/2×RPMI 1640 medium solution was poured into four sterile bottles in an amount of 30 ml per bottle. The sterile bottles were immersed in a water incubator set at 41° C. and the medium solutions therein were heated to be 41° C.
The concentration of aminopterin became twice that in the HAT medium.
The concentrations of hypoxanthine and thymidine became twice those in the HAT medium.
To a medium solution containing aminopterin in another sterile bottle, the HT supplements were added in amounts such that their total volume is one-five hundredth ( 1/500) of the total volume of the medium solution containing aminopterin and the HT supplements. The concentrations of hypoxanthine and thymidine became one-fifth of those in a HAT medium. The sterile bottles were continuously heated at 41° C.
Then, at 41° C., 20 ml of the 1 w/v % agarose solution was mixed with 20 ml of medium solution No. 3 under an aseptic condition. By this, concentrations of the culture medium components of RPMI 1640 medium, heat-inactivated bovine fetal serum, aminopterin, and HT supplements, each of which had been prepared in an concentration of twice the final concentration, became one half of their concentrations in medium solution No. 3.
While, 10 ml of ultrapure water which had been sterilized by filtration was added to 10 ml of medium solution No. 3. […] This solution was used as a control solution.
After the mixed solution was poured into the wells, the culture plate was left cooling down for 60 minutes or more under room temperatures. Thus, the mixed solution was gelatinized. Hereafter, the gelatinized mixed solution will be designated as “an aminoprerin/HT-containing agarose gel.”
In each well the layer of the aminoprerin/HT-containing agarose gel was punched out in its center by using a biopsy punch having a diameter of 6 mm to form a hollow.
Into each of the thus-formed hollows, 0.17 ml of the culture medium solution not containing agarose (i.e., the control solution) was poured.

hybridoma KNA14.2 [2] = settings: method of the present invention; three days; 5×10^5 cells per ml; [A(+), H(+)]
Protocol: The cell culture in Example 3 was repeated except that a hybridoma suspension containing hybridoma KNA14.2 in an amount of 5×10^5 per ml was used instead of the hybridoma suspension containing that hybridoma in an amount of 1×10^6 per ml.
Three days after the culture was started, states of cells that were cultured in a RPMI1640 medium solution containing aminopterin and serum ([A(+), H(−)]) and that were cultured in a RPMI1640 medium solution containing aminopterin, HT supplements, and serum ([A(+), H(+)]) were photographed under a microscope (magnification: ×200).
FIGS. 17 and 18 show cells that were cultured in the RPMI1640 medium solution containing aminopterin and serum ([A(+), H(−)]) and cells that were cultured in the RPMI1640 medium solution containing aminopterin, HT supplements, and serum ([A(+), H(+)]), respectively, by the method of the present invention (culture in a hollow that was formed in a gel).

[3] = Diffusion or elution of trypan blue from trypan blue-containing agarose gel to PBS in a hollow; assay type: physicochemical; settings: 0.5 w/v % agarose gel, 37° C., absorbance at 550 nm
Protocol: To 5 ml of distilled water, 0.05 g of agarose (Takara, L 03 “TaKaRa”) was suspended (concentration: 1 w/v %). Then, to dissolve the agarose the suspension was heated at 121° C. for 15 minutes in an autoclave (Tomy Seiko, SS-320). A bottle containing the thus-obtained agarose solution was immersed in a water incubator set at 41° C. and the agarose solution was cooled to be 41° C.
While, a 0.3% trypan blue-containing 2×PBS solution (phosphate buffered saline, 2×PBS) was prepared. This solution was sterilized by making the solution pass through a nitrocellulose filter membrane having a pore size of 0.2 μm. A bottle containing the sterilized 0.3% trypan blue-containing 2×PBS solution was immersed in a water incubator set at 41° C. and the solution was heated to be 41° C. […]
At appropriate time intervals, 0.02 ml of the PBS (it seemed that this contained trypan blue) in the hollow that had been made in the center of the gel layer in a well of the culture plate was taken out. […] The absorbance of the diluted PBS was determined at a wave length of 550 nm. The background was determined by using a diluted PBS (concentration: ⅕) containing no trypan blue. The value that was obtained by subtracting the absorbance of the background from that of the PBS that had been taken out from the PBS in the hollow and had diluted was specified as a true absorbance of the diluted PBS. […]

[4] = Diffusion or elution of IL-2 from IL-2-containing agarose gel to culture medium solution in a hollow (ELISA); assay type: physicochemical; settings: 37° C.
Protocol: Agarose (Takara, L 03 “TaKaRa”) was added to ultrapure water in a ratio of 1 gram per 100 ml of the water and was suspended (concentration: 1 w/v %). Then, to dissolve the agarose the suspension was heated at 121° C. for 15 minutes in an autoclave (Tomy Seiko, SS-320). A bottle containing the thus-obtained agarose solution was immersed in a water incubator set at 41° C. and the agarose solution was cooled to be 41° C.
While, a powdery GIBCO™ Medium RPMI 1640 (INVITROGEN CORPORATION, Cat. No. 31800-014) (glutamine was contained) was added to ultrapure water in a ratio of 10.4 gram per 500 ml of the water and was dissolved (concentration: about twice the final concentration). This solution was sterilized by making the solution pass through a nitrocellulose filter membrane having a pore size of 0.2 μm. Thus, 2×RPMI 1640 medium solution was prepared.
To 30 ml of this medium solution, 2-mercaptoethanol, penicillin, and streptomycin were added under an aseptic condition in such amounts as to be concentrations of 100 μM, 50 U/ml, and […], respectively. Then, to the thus-obtained solution, 6 ml of heat-inactivated bovine fetal serum was added. To the thus-obtained heat-inactivated bovine fetal serum/2×RPMI 1640 medium solution, interleukin 2 (IL-2, mouse, recombinant, SIGMA I-0523) was added in a ratio of 5 ng per ml of the solution. […]
At appropriate time intervals after the solution was poured into the hollows, from three hollows solutions were taken out in an amount of 0.02 ml per hollow. […] Then, by using mouse IL-2 Elisa Ready-SET-Go! (e-Bioscience, Cat. No. 88-70224-77), IL-2 concentrations of the samples were determined according to the protocol stated in the instruction.
The numerical values of the vertical axis were calculated as follows: After the solutions in the hollows were taken out, the IL-2-containing agarose gel was crushed and a solution was squeezed of the gel. For this solution an IL-2 concentration was determined in the same way as explained above. […]

Molecule: O=c1[nH]cnc2nc[nH]c12 [hypoxantin, hypoxanthine]
compensation of inhibition against cell proliferation by aminopterin through the salvage pathway (hybridoma KNA14.2 [1]; [A(+), H(0.1+)] and [A(+), H(+)], 1×10^6 cells per ml, two, three and four days, hollows formed in gels): compensated | level of compensation of inhibition against cell proliferation by aminopterin (hybridoma KNA14.2 [1]; conventional method (ninety-six-well culture plate), [A(+), H(0.1+)] and [A(+), H(+)]): about 40% | compensation of inhibition against cell proliferation by aminopterin (hybridoma KNA14.2 [1]; conventional method): scarecely compensated | level of compensation of inhibition against cell proliferation by aminopterin (hybridoma KNA14.2 [1]; method of the present invention (hollow formed in a gel), [A(+), H(0.1+)] and [A(+), H(+)]): about 100% | compensation of inhibition against cell proliferation by aminopterin (hybridoma KNA14.2 [1]; method of the present invention): compensated with hypoxantin in the same level as that in the culture using the hypoxantin in its usual concentration | compensation of inhibition against cell proliferation by aminopterin (cell number and states under microscope) (hybridoma KNA14.2 [2]): compensated

concentration of trypan blue in PBS in the hollow relative to the equilibrium value ([3]; one hour after incubation started): above 50% | concentration of trypan blue in PBS in the hollow relative to the equilibrium value ([3]; three hours after incubation started): above 80%
Molecule: Cc1cc(-c2ccc(/N=N/c3c(S(=O)(=O)O)cc4cc(S(=O)(=O)O)cc(N)c4c3O)c(C)c2)ccc1/N=N/c1c(S(=O)(=O)O)cc2cc(S(=O)(=O)O)cc(N)c2c1O [trypan blue]

B1: IL-2: interleukin 2 (IL-2, mouse, recombinant, SIGMA I-0523) (protein, UniProt P04351 21-169, looked up)
Interleukin-2: APTSSSTSSSTAEAQQQQQQQQQQQQHLEQLLMDLQELLSRMENYRNLKLPRMLTFKFYLPKQATELKDLQCLEDELGPLRHVLDLTQSKSFQLEDAENFISNIRVTVVKLKGSDNTFECQFDDESATVVDFLRRWIAFCQSIISTSPQ
IL-2 concentration of the solution in the hollow relative to the equilibrium value ([4]; forty-eight hours after incubation started): about 70% | IL-2 concentration of the solution in the hollow relative to the equilibrium value ([4]; two hours after incubation started): about 10% | IL-2 concentration of the solution in the hollow relative to the equilibrium value ([4]; within six hours): at least 30%
